The values that follow are results of earlier work, collected in patent US20260041710A1, “A NOVEL COMBINATION FOR ITS UTILITY IN MICRO AND MACRO VASCULAR COMPLICATIONS” (priority 2022, published 2026).

The test system of series [1] is 54 Irish patients of diabetic retinopathy. The following applies: single injection.

Like-named read-outs stand apart in the source and are kept apart here.

For the substance “Bevacizumab: full-length antibody that inhibits all isoforms of the VEGF-A family”, in series [1], the “patients with greater than 50 microns reduction of macular thickness” value was 9.2%, the “patients with greater than 100 microns reduction of macular thickness” value is reported as 20.3%, the “patients with less than 50 microns reduction in macular thickness” value is reported as 40.7% and the “patients without any improvement” value is listed as 29.6%. For the same substance, in series [1] (of 54 patients), the “patients with greater than 50 microns reduction of macular thickness” value is 5 patients, the “patients with less than 50 microns reduction in macular thickness” value is reported as 22 patients and the “patients without any improvement” value was 16 patients. In addition, the BCVA (1 month after intravitreal injection, P<0.001) is listed as 0.76. The BCVA (before intravitreal injection) is 0.90.
